Test results from patent US20230149374A1, “METHODS AND COMPOSITIONS FOR TREATING ATHEROSCLEROSIS” (Sanford Burnham Prebys Medical Discovery Institute, priority 2021, published 2023).
Entries after “also recorded” stand apart in the source; their conditions may differ.

What was measured:
ApoE-deficient mice [1] = test: In vivo aortic calcification imaging, 18F-NaF μPET / μCT; set-up: species or system mouse; conditions: ApoE-deficient mice on HFD, 30 mg/kg/day in food from 10 to 25 weeks of age; control 6 out of 11
Excerpt: Four cohorts of mice were used in these studies (FIGS. 8A and 9A). Cohorts 1 and 2 were devoted to the in vivo and ex vivo characterization of TNAP-associated plaque calcification. 6-week-old ApoE-deficient male mice were received at the animal facility and placed in conventional cages with 5 mice per cage. Mice were maintained on a 12-hrs light-dark cycle (7:00 am-7:00 pm) and were supplied with food and water ad libitum. From 10 weeks of age, they were fed ad libitum with a high fat diet (HFD, D12108C, Research Diets, New Brunswick, USA) containing 40% fat (kcal) and 1.25% cholesterol (weight). In cohort 1, 8 mice were sacrificed every 2 weeks between weeks 17 to 31, for histological and molecular analyses. Total body weight was measured weekly after starting the HFD. The sacrifice was done after anesthesia with isoflurane and intracardiac blood puncture by CO2 inhalation. Tissues were harvested as described below. The abdominal aorta was used for quantitative polymerase chain reaction (PCR) analyses. […] Plaque calcification was analyzed at 25 weeks, and possible side effects of TNAP inhibition were explored in mice aged 31 weeks. […]
Mice were placed into a chamber connected to an isoflurane anesthesia unit. […] Images were analyzed using Inveon Research workplace (Siemens). The presence of atherosclerotic plaques was evaluated both in CT and PET images. […]

ApoE-deficient mice [2] = test: Quantitative PCR of transcript levels in the abdominal aorta; type: in vivo, mouse; conditions: 30 mg/kg/day, 25 weeks, vs control
Excerpt: (§1) Four cohorts of mice were used in these studies (FIGS. 8A and 9A). Cohorts 1 and 2 were devoted to the in vivo and ex vivo characterization of TNAP-associated plaque calcification. 6-week-old ApoE-deficient male mice were received at the animal facility and placed in conventional cages with 5 mice per cage. Mice were maintained on a 12-hrs light-dark cycle (7:00 am-7:00 pm) and were supplied with food and water ad libitum. From 10 weeks of age, they were fed ad libitum with a high fat diet (HFD, D12108C, Research Diets, New Brunswick, USA) containing 40% fat (kcal) and 1.25% cholesterol (weight). In cohort 1, 8 mice were sacrificed every 2 weeks between weeks 17 to 31, for histological and molecular analyses. Total body weight was measured weekly after starting the HFD. The sacrifice was done after anesthesia with isoflurane and intracardiac blood puncture by CO2 inhalation. Tissues were harvested as described below. The abdominal aorta was used for quantitative polymerase chain reaction (PCR) analyses. Mice from cohort 2 were used to analyze aorta calcification with ^18F—NaF μPET and μCT and to compare the in vivo data with the ex vivo results obtained in cohort 1. Animals were transferred from the animal facility to the Cermep imaging platform. Cohorts 3 and 4 were used to determine in vivo and ex vivo the impact of TNAP inhibition on the vasculature, liver, bones, and kidneys. According to the results obtained in cohorts 1 and 2, TNAP inhibitor SBI-425 (30 mg/kg/day, formulated as a food admixture in the HFD) was administered in a preventive manner from 10 weeks of age. Treatment was stopped at 25 weeks or 31 weeks of age. Plaque calcification was analyzed at 25 weeks, and possible side effects of TNAP inhibition were explored in mice aged 31 weeks. Mice in cohort 3 (2 groups of 13 mice) were used for ex vivo analysis, and mice in cohort 4 (2 groups of 12 mice) for in vivo imaging and ex vivo analyses.
Mouse tissues: total RNAs were extracted from grinded abdominal aorta with the NucleoSpin RNA II kit (Macherey-Nagel) following the manufacturers' protocol. The quantity and quality of RNA were determined using a NanoDrop. RNA (1 μg) was retro-transcribed into cDNA with Superscript II reverse transcriptase (Life Technologies). PCR analysis was conducted using SYBR green Supermix (Biorad) on the iCycler Real-Time Detection system (Biorad). Fold change in mRNA expression was calculated using the 2^−Δcq method by the CFX Manager software (Biorad). Data were normalized by 3 housekeeping genes (HPRT, Actin and Rpl13a) levels.

ApoE-deficient mice [3] = test: Bone architecture by micro-CT of the femur; type: in vivo, mouse; conditions: 30 mg/kg/day, treatment up to 21 weeks (31 weeks of age)
Excerpt: Four cohorts of mice were used in these studies (FIGS. 8A and 9A). Cohorts 1 and 2 were devoted to the in vivo and ex vivo characterization of TNAP-associated plaque calcification. 6-week-old ApoE-deficient male mice were received at the animal facility and placed in conventional cages with 5 mice per cage. Mice were maintained on a 12-hrs light-dark cycle (7:00 am-7:00 pm) and were supplied with food and water ad libitum. From 10 weeks of age, they were fed ad libitum with a high fat diet (HFD, D12108C, Research Diets, New Brunswick, USA) containing 40% fat (kcal) and 1.25% cholesterol (weight). In cohort 1, 8 mice were sacrificed every 2 weeks between weeks 17 to 31, for histological and molecular analyses. Total body weight was measured weekly after starting the HFD. The sacrifice was done after anesthesia with isoflurane and intracardiac blood puncture by CO2 inhalation. Tissues were harvested as described below. The abdominal aorta was used for quantitative polymerase chain reaction (PCR) analyses. Mice from cohort 2 were used to analyze aorta calcification with ^18F—NaF μPET and μCT and to compare the in vivo data with the ex vivo results obtained in cohort 1. Animals were transferred from the animal facility to the Cermep imaging platform. […] Plaque calcification was analyzed at 25 weeks, and possible side effects of TNAP inhibition were explored in mice aged 31 weeks. […]

ApoE-deficient mice [4] = test: Liver content of cholesterol, triglycerides, bile acids, hydroxyproline; type: in vivo, mouse; conditions: 30 mg/kg/day, 25 weeks, vs control
Excerpt: as §1
For the determination of cholesterol, triglycerides, and total bile acids in liver, 40-mg pieces of liver were homogenized in 1 mL of 5% NP40 solution in a dounce homogenizer. The hydrophobic components were extracted twice at 80° C. for 5 minutes. The samples were centrifuged, and the supernatants were assayed for cholesterol, triglycerides and bile acids with the same kits used for blood. In order to quantify hydroxyproline, 100 mg pieces of liver were homogenized in 1 mL of pure water in a dounce homogenizer and a perchlorate-free kit from Sigma was used (MAK357).

COc1ccc(Cl)cc1S(=O)(=O)Nc1cncc(C(N)=O)c1 [SBI-425]
mice having calcifications, in vivo 18F-NaF μPET and μCT (ApoE-deficient mice [1]): 0 out of 12
Acan transcript level (chondrocyte marker), abdominal aorta (ApoE-deficient mice [2]): not accompanied by reduced levels
Alpl transcript level (chondrocyte marker), abdominal aorta (ApoE-deficient mice [2]): not accompanied by reduced levels
Cd68 transcript level (inflammatory marker), abdominal aorta (ApoE-deficient mice [2]): significantly decreased
Il6 transcript level (inflammatory marker), abdominal aorta (ApoE-deficient mice [2]): significantly decreased
Il8 transcript level (inflammatory marker), abdominal aorta (ApoE-deficient mice [2]): significantly decreased
Opn transcript level (inflammatory marker), abdominal aorta (ApoE-deficient mice [2]): significantly decreased
Rankl transcript level (inflammatory marker), abdominal aorta (ApoE-deficient mice [2]): significantly decreased
Runx2 transcript level (chondrocyte marker), abdominal aorta (ApoE-deficient mice [2]): not accompanied by reduced levels
Sox9 transcript level (chondrocyte marker), abdominal aorta (ApoE-deficient mice [2]): not accompanied by reduced levels
bone architecture (ApoE-deficient mice [3]): no effect; also recorded: did not significantly change
liver TG content (ApoE-deficient mice [4]): not increased
liver bile acids levels (ApoE-deficient mice [4]): did not change
liver cholesterol levels (ApoE-deficient mice [4]): did not change
liver hydroxyproline levels (liver fibrosis) (ApoE-deficient mice [4]): unchanged
